# Laboratory results published in patent US5712417A, “Inhibitors of retroviral proteases” (Abbott Laboratories, priority 1989, dated 1998).
# Where a name gives a salt, the structure may show the parent alone.
# Target: T1, HIV protease (Human immunodeficiency virus type 1 group M subtype B, UniProt P04585)
# T1 construct: HIV protease consists of 99 amino acids and is evidently split off by itself from the pol polyprotein
# Experiment: Inhibition of HIV protease (cleavage of H-Ser-Phe-Asn-Phe-Opr-Gln-Ile-OH, HPLC)
# Format: biochemical
# Conditions: not given
# From the text: The compounds of the formula (I) according to the invention have enzyme-inhibiting properties. In particular, they inhibit the action of retroviral aspartyl proteases, such as that of HIV protease. Their enzyme-inhibitory action, which is in the milli- to subnanomolar range, can be determined as follows.
# The heptapeptide: H-Ser-Phe-Asn-Phe-Pro-Gln-Ile-OH (P. L. Darke et al., Biophys. Res. Commun. 156 (1988) 297-303), inter alia, has hitherto been used as the substrate of HIV protease. HIV protease cleaves the substrate here between the second Phe and Pro.
# General instructions for testing inhibitors of HIV proteases: a) Preparation of the substrate solution:
# 2 mg of H-Ser-Phe-Asn-Phe-Opr-Gln-Ile-OH (H-Opr-OH=5-oxaproline) are dissolved in 1 ml of MGTE15 buffer (use of ultrasound if necessary) and the solution is then filtered over a sterile filter (0.45 μm). […]
# b) Preparation of the inhibitor solution:
# 2.5 times the desired molarity of the inhibitor per ml of solution are weighed out and dissolved in DMSO (10% of the final volume). The solution is diluted to the final volume with MGTE15 buffer and filtered over a sterile filter (0.45 μm). […]
# c) Preparation of the protease solution:
# 5 μl of the HIV protease solution are diluted with MGTE25 buffer as required.
# 10 μl portions of the substrate solution are pipetted into test-tubes (16×100) with a screw cap. For the blank experiment, 10 μl of MGTE15 buffer containing 10% of DMSO are pipetted into a test-tube. 10 μl portions of the inhibitor solutions are added to the other test-tubes. The mixtures are incubated at 37° C. for 5-10 minutes and 5 μl of the protease solution are then added to each sample, After reaction at 35° C. for 2 hours, 10 or 20 μl (depending on the sensitivity of the HPLC apparatus) of each sample are then pipetted off, introduced into microvials and diluted with 120 μl of the HPLC mobile phase. […]
# e) Conditions for the HPLC analysis:
# 20% (weight/weight) of aceto-
# Column: Merck ®LICHROSORB RP18 (5 μm) 250×4
# Column temperature: 42° C.
# Detector parameters: 215 nm, 0.08 AUF, 18.2° C.
# Analysis time: 11 minutes
# Retention time of the substrate: 8.1 minutes
# Retention time of the N-terminal tetrapeptide: 3.9 minutes
# 20 mM morpholinoethanesulfonic acid (MES)
# 15% (weight/volume) of glycerol
# 0.1% (volume/volume) of Triton ×100
# 1 mM phenylmethylsulfonyl fluoride (PMSF)
# 25% (weight/volume) of glycerol, additionally 1 mM dithiothreitol (DTT) The MES, EDTA, NaCl, DTT and PMSF are weighed into a conical flask and dissolved in a little water and the pH is brought to 6. The corresponding amount of glycerol is weighed into a measuring flask and ®Triton ×100 is pipetted in. The aqueous solution is transferred to the measuring flask and made up to the mark with water.
# A 0.1M solution is prepared from orthophosphoric acid (FLUKA extra pure analytical grade). This solution is brought to exactly pH 2.5 with triethylamine (FLUKA extra pure analytical grade). The weight of the solution is determined and the corresponding amount of acetonitrile (fume cupboard) is weighed in. The mixture is mixed thoroughly and degassed with helium 5.0 for about 5 minutes.
# Under the conditions chosen here, heptapeptides are separated from the N-terminal tetrapeptide formed during enzymatic cleavage. The percentage content of the tetrapeptide peak in respect of the sum of tetrapeptide+heptapeptide corresponds to the cleaving rate. The following IC50 values indicate the inhibitor concentration at which the cleavage rate is halved.
row,SMILES,IC50 [nM]
1,"CC(C)[C@H](NC(=O)[C@H](Cc1ccccc1)NC(=O)[C@H](COC(C)(C)C)NC(=O)OC(C)(C)C)C(=O)N[C@@H](Cc1ccccc1)[C@@H](O)[C@H](O)[C@H](Cc1ccccc1)NC(=O)[C@@H](NC(=O)[C@H](Cc1ccccc1)NC(=O)[C@H](COC(C)(C)C)NC(=O)OC(C)(C)C)C(C)C [Example 15, N,N'-bis-(tert.-Butoxycarbonyl-L-(O-tert.-butylseryl)-L-phenylalanyl-L-valyl)-2S,5S-diamino-1,6-diphenyl-hexane-3R,4R-diol]",400

# Same assay, conditions: inhibitor concentration at which the cleavage rate is halved; Ex. 99; read-out: IC50
row,IC50 [nM],SMILES
1,15,"CC(C)[C@H](NC(=O)[C@@H](CC(=O)N1CCC(N)CC1)Cc1ccccc1)C(=O)N[C@@H](Cc1ccccc1)[C@@H](O)[C@H](O)[C@H](Cc1ccccc1)NC(=O)[C@@H](NC(=O)[C@@H](CC(=O)N1CCC(N)CC1)Cc1ccccc1)C(C)C [Example 99, N,N'-bis-<3-(4-Amino-1-piperidylcarbonyl-2R-benzyl-propionyl-L-valyl>-2S,5S-diamino-1,6-diphenylhexane-3R,4R-dioldihydrochloride]"

# Same assay, conditions: inhibitor concentration at which the cleavage rate is halved; pH 6, 2 hours; read-out: IC50
row,SMILES,IC50 [nM]
1,"CC[C@H](C)[C@H](NC(=O)[C@H](Cc1cccc2ccccc12)CS(=O)(=O)C(C)(C)C)C(=O)N[C@@H](Cc1ccccc1)[C@@H](O)[C@H](O)[C@H](Cc1ccccc1)NC(=O)[C@@H](NC(=O)[C@H](Cc1cccc2ccccc12)CS(=O)(=O)C(C)(C)C)[C@@H](C)CC [Example 156, N,N'-bis-(<2S-(1,1-Dimethylethylsulfonylmethyl)-3-(1-naphthyl)-propionyl>-L-isoleucyl)-2S,5S-diamino-1,6-diphenylhexane-3R,4R-diol]",30
2,"CC(C)[C@H](NC(=O)[C@@H](N)Cc1ccccc1)C(=O)N[C@@H](CC1CCCCC1)[C@H](O)[C@@H](O)[C@H](CC1CCCCC1)NC(=O)[C@@H](NC(=O)[C@@H](N)Cc1ccccc1)C(C)C [Example 43, N,N'-bis-[L-Phenylalanyl-L-valyl]-2S,5S-diamino-1,6-dicyclohexylhexane-3S,4S-diol dihydrochloride]",1
3,"CC(C)[C@H](NC(=O)[C@H](Cc1ccccc1)NC(=O)OC(C)(C)C)C(=O)N[C@@H](CC1CCCCC1)[C@H](O)[C@@H](O)[C@H](CC1CCCCC1)NC(=O)[C@@H](NC(=O)[C@H](Cc1ccccc1)NC(=O)OC(C)(C)C)C(C)C [Example 45, N,N'-bis-(tert.-Butoxycarbonyl-L-phenylalanyl-L-valyl)-2S,5S-diamino-1,6-dicyclohexylhexane-3S,4S-diol]",1500
4,"CC(C)C[C@H](NC(=O)[C@@H](NC(=O)[C@@H](N)Cc1ccccc1)C(C)C)C(O)C(O)[C@H](CC(C)C)NC(=O)[C@@H](NC(=O)[C@@H](N)Cc1ccccc1)C(C)C (stereo partly drawn) [Example 55, N,N'-bis-(L-Phenylalanyl-L-valyl)-4S,7S-diamino-2,9-dimethyldecane-5,6-dioldihydrochloride]",1.3
5,"CC(C)[C@H](NC(=O)[C@H](CCC(=O)O)NC(=O)OC(C)(C)C)C(=O)N[C@@H](Cc1ccccc1)[C@H](O)[C@@H](O)[C@H](Cc1ccccc1)NC(=O)[C@@H](NC(=O)[C@H](CCC(=O)O)NC(=O)OC(C)(C)C)C(C)C [Example 83, N,N,-bis-<tert.-Butoxycarbonyl-L-glutamyl-L-valyl>-2S,5S-diamino-1,6-diphenylhexane-3S,4S-diol]",10
6,"CC(C)(C)OC(=O)N[C@@H](CC1CCCCC1)[C@H](O)[C@H](O)[C@H](CC1CCCCC1)NC(=O)OC(C)(C)C [Example 48, N,N'-bis-(tert.-Butoxycarbonyl)-2S, 5S-diamino-1,6-dicyclohexylhexane-3R, 4S-diol]",80000
7,"CC(C)[C@H](NC(=O)[C@@H](CC(=O)N1CCC(NC(=O)OC(C)(C)C)CC1)Cc1ccccc1)C(=O)N[C@@H](Cc1ccccc1)[C@@H](O)[C@H](O)[C@H](Cc1ccccc1)NC(=O)[C@@H](NC(=O)[C@@H](CC(=O)N1CCC(NC(=O)OC(C)(C)C)CC1)Cc1ccccc1)C(C)C [Example 100, N,N'-bis-<2R-Benzyl-3-(4-tert.-butoxycarbonylamino-1-piperidylcarbonyl)-propionyl-n-valyl>-2S,5S-diamino-1,6-diphenylhexane-3R,4R-diol dihydrochloride]",400
8,"CC(C)[C@H](NC(=O)C(Cc1ccccc1)CS(=O)(=O)N1CCC(N)CC1)C(=O)N[C@@H](Cc1ccccc1)[C@@H](O)[C@H](O)[C@H](Cc1ccccc1)NC(=O)[C@@H](NC(=O)C(Cc1ccccc1)CS(=O)(=O)N1CCC(N)CC1)C(C)C (stereo partly drawn) [Example 97, N,N'-bis-<3-(4-Amino-1-piperidylsulfonyl)-2-benzyl-propionyl-L-valyl>-2S,5S-diamino-1,6-diphenylhexane-3R,4R-diol]",36
9,"CC(C)[C@H](NC(=O)[C@H](CCC(=O)OCc1ccccc1)NC(=O)OC(C)(C)C)C(=O)N[C@@H](Cc1ccccc1)[C@H](O)[C@@H](O)[C@H](Cc1ccccc1)NC(=O)[C@@H](NC(=O)[C@H](CCC(=O)OCc1ccccc1)NC(=O)OC(C)(C)C)C(C)C [Example 84, N,N,-bis-<(N-tert.-Butoxycarbonyl-O-benzyl-L-glutamyl)-L-valyl>-2S,5S-diamino-1,6-diphenylhexane-3S,4S-diol]",110
10,"CC(C)[C@H](NC(=O)[C@H](Cc1ccccc1)NC(=O)OC(C)(C)C)C(=O)N[C@H](Cc1ccccc1)[C@@H](O)[C@H](O)[C@@H](Cc1ccccc1)NC(=O)[C@@H](NC(=O)[C@H](Cc1ccccc1)NC(=O)OC(C)(C)C)C(C)C [Example 33, N,N'-bis-(tert.-Butoxycarbonyl-L-phenylalanyl-L-valyl)-2R,5R-diamino-1,6-diphenylhexane-3R,4R-diol]",20000

# Results, then the compound that gave them:
row,IC50 [nM],SMILES
1,3000,"CC(C)[C@H](NC[C@@H](N)Cc1ccccc1)C(=O)N[C@@H](Cc1ccccc1)[C@H](O)[C@@H](O)[C@H](Cc1ccccc1)NC(=O)[C@@H](NC[C@@H](N)Cc1ccccc1)C(C)C [Example 28, N,N'-bis-(2S-<2S-Amino-3-phenylpropyl>-amino-3-methyl-butanoyl)-2S,5S-diamino-1,6-diphenylhexane-3S,4S-diol tetrahydrochloride]"
2,22,"CC(C)[C@H](NC(=O)C(Cc1ccccc1)C[S+]([O-])Cc1ccccc1)C(=O)N[C@@H](Cc1ccccc1)[C@@H](O)[C@H](O)[C@H](Cc1ccccc1)NC(=O)[C@@H](NC(=O)C(Cc1ccccc1)C[S+]([O-])Cc1ccccc1)C(C)C (stereo partly drawn) [Example 121, N,N'-bis-<(2-(Benzylsulfinylmethyl)-3-phenylpropionyl)-L-valyl>-2S,5S-diamino-1,6-diphenylhexane-3R,4R-diol]"
3,0.7,"CC(C)[C@H](NC(=O)[C@H](Cc1ccccc1)NC(=O)[C@@H](N)CO)C(=O)N[C@@H](Cc1ccccc1)[C@H](O)[C@@H](O)[C@H](Cc1ccccc1)NC(=O)[C@@H](NC(=O)[C@H](Cc1ccccc1)NC(=O)[C@@H](N)CO)C(C)C [Example 19, N,N'-bis-(L-Seryl-L-phenylalanyl-L-valyl)-2S,5S-diamino-1,6-diphenylhexane-3S,4S-diol dihydrochloride]"
4,19,"CC(C)[C@H](NC(=O)[C@H](Cc1c[nH]c2ccccc12)NC(=O)OCc1ccccc1)C(=O)N[C@@H](Cc1ccccc1)[C@@H](O)[C@H](O)[C@H](Cc1ccccc1)NC(=O)[C@@H](NC(=O)[C@H](Cc1c[nH]c2ccccc12)NC(=O)OCc1ccccc1)C(C)C [Example 117, N,N'-bis-<Benzyloxycarbonyl-L-tryptophyl-L-valyl>-2S,5S-diamino-1,6-diphenylhexane-3R,4R-diol]"

# Same assay, conditions: read-out: IC50
row,IC50 [nM],SMILES
1,1.2,"CC(C)[C@H](NC(=O)[C@@H](N)Cc1c[nH]c2ccccc12)C(=O)N[C@@H](Cc1ccccc1)[C@@H](O)[C@H](O)[C@H](Cc1ccccc1)NC(=O)[C@@H](NC(=O)[C@@H](N)Cc1c[nH]c2ccccc12)C(C)C [Example 118, N,N'-bis-<L-Tryptophyl-L-valyl>-2S,5S-diamino-1,6-diphenylhexane-3R,4R-dioldihydrochloride]"
